Measured values published in patent US20180228722A1, “UNIT DOSE PACKAGES, COMPOSITIONS, AND TREATMENT REGIMENS TO DELIVER PRO-[…] S[…] KERATIN SURFACES” (ELC Management LLC, priority 2015, published 2018).

Tests used:
[1] = tested on: human neutrophils; assay: Release of Inflammatory Metabolites (PGE2, LTB4) and Inflammatory Metabolite Marker (5-HETE) from PMA/A23187-stimulated neutrophils, LC-MS/MS of supernatants; format: cell-based; conditions: for decrease in Inflammatory Metabolites and Inflammatory Metabolite Markers (aggregate): vs control cells exposed to inflammation precipitating condition; for net decrease in cellular concentration of Inflammatory Metabolites and Inflammatory Metabolite Markers (aggregate): vs control cells subjected only to inflammation precipitating condition; for decrease in cellular concentration of 5-HETE / decrease in cellular concentration of LTB4 / decrease in cellular concentration of PGE2: vs PMA/A23187 control
Procedure: (§1) Ingredients were tested to assess the ability to promote Pro-Resolution Pathway Stimulators in human neutrophils. The following Inflammatory Metabolites were measured: PGE2 and LTB4. The Inflammatory Metabolite Marker, 5-HETE, was measured. Also measured were the Pro-Resolving Lipid Mediator Markers 15-HETE, 12-HETE, 14-HDOHE, 18-HEPE, and 17-HDOHE. PGE2, LTB4, and 5-HETE are indicators of inflammation. Increases in cellular secretion of PGE2, LTB4, or 5-HETE are seen in response to inflammation precipitating conditions. Active ingredients that cause a reduction in cellular concentration of PGE2, LTB4, or 5-HETE are anti-inflammatory in nature. Cellular secretion of Pro-Resolving Lipid Mediators occurs in the inflammation resolution phase. Active ingredients that stimulate cellular secretion of Pro-Resolving Lipid Mediators (as measured by measuring Pro-Resolving Lipid Mediator Markers) help to promote resolution of inflammation.
(§2) Then, the inflammatory response was initiated by adding an inflammation precipitating ingredient, in particular PMA/[…] which is a mixture of 5-(methylamino)-2-({2R,3R,6S,8S,9R,11R)-3,9,11-trimethyl-8-[(1S)-1-methyl-2-oxo-2-(1H-pyrrol-2-yl)ethyl]-1,7-dioxaspiro[5.5]undec-2-yl}methyl)-1,3-benzoxazole-4-carboxylic acid and PMA (phorbol myristate acetate), at a concentration of 0.05 μm and 1 μm respectively to each well. After one hour the supernatants were collected and stored at −80° C. until assayed.
(§3) Cell supernatants were assayed for Inflammatory Metabolites (PGE2, LBT4), Inflammatory Metabolite Markers (5-HETE), and Pro-Resolving Lipid Mediator Markers 15-HETE, 12-HETE, 14-HDOHE, 18-HEPE, and 17-HDOHE. More specifically, analysis was performed by extraction using an Oasis HLB 96-well plate (Waters) according to manufacturer's directions.
(§4) Suitable Pro-Resolving Activators are ingredients that show an increase in cellular concentration of Pro-Resolving Lipid Mediator Markers 15-HETE, 12-HETE, 14-HDOHE, 18-HEPE, and 17-HDOHE alone or in combination, when cells exposed to an inflammation precipitating condition either before or after exposure to the active.

[2] = tested on: human neutrophils; assay: Release of Pro-Resolving Lipid Mediator Markers (15-HETE, 12-HETE, 14-HDOHE, 18-HEPE, 17-HDOHE) from PMA/A23187-stimulated neutrophils, LC-MS/MS of supernatants; format: cell-based
Procedure: as §1, §2, §3, §4

resveratrol salicylate
decrease in cellular concentration of Inflammatory Metabolites and Inflammation Metabolite Markers in the aggregate (better than control) ([1]; 0.43 ug/ml): 87% | decrease in cellular concentration of Inflammatory Metabolites and Inflammation Metabolite Markers in the aggregate (better than control) ([1]; 4.3 ug/ml): 163% | decrease in cellular concentration of Inflammatory Metabolites and Inflammation Metabolite Markers in the aggregate (better than control) ([1]; 43 ug/ml): 257% | increase in cellular concentration of Pro-Resolving Lipid Mediator Markers, in the aggregate ([2]; 0.43 ug/ml): not being as effective | increase in cellular concentration of Pro-Resolving Lipid Mediator Markers, in the aggregate ([2]; 4.3 ug/ml): 4% | increase in cellular concentration of Pro-Resolving Lipid Mediator Markers, in the aggregate ([2]; 43 ug/ml): 37%

Oc1ccc(C=Cc2cc(O)cc(O)c2)cc1 [resveratrol]
decrease in Inflammatory Metabolites and Inflammatory Metabolite Markers (aggregate) ([1]; 0.1 ug/ml): 45% | decrease in Inflammatory Metabolites and Inflammatory Metabolite Markers (aggregate) ([1]; 1 ug/ml): 59% | decrease in Inflammatory Metabolites and Inflammatory Metabolite Markers (aggregate) ([1]; 10 ug/ml): 106% | % change of Pro-Resolving Lipid Mediator Markers, in the aggregate, compared to control ([2]; 0.1 ug/ml): −27% | % change of Pro-Resolving Lipid Mediator Markers, in the aggregate, compared to control ([2]; 1 ug/ml): −16% | % change of Pro-Resolving Lipid Mediator Markers, in the aggregate, compared to control ([2]; 10 ug/ml): −10%

O=C(O)c1ccccc1O [salicylic acid]
net decrease in cellular concentration of Inflammatory Metabolites and Inflammatory Metabolite Markers (aggregate) ([1]; 0.33 μg/ml (first of range 0.33 to 33 μg/ml)): 29% | decrease in cellular concentration of 5-HETE ([1]; 0.33 μg/ml): 15% | decrease in cellular concentration of LTB4 ([1]; 0.33 μg/ml): 1% | decrease in cellular concentration of PGE2 ([1]; 0.33 μg/ml): 19% | net decrease in cellular concentration of Inflammatory Metabolites and Inflammatory Metabolite Markers (aggregate) ([1]; 3.3 μg/ml (second of range 0.33 to 33 μg/ml)): 58% | decrease in cellular concentration of 5-HETE ([1]; 3.3 μg/ml): 20% | decrease in cellular concentration of LTB4 ([1]; 3.3 μg/ml): 12% | decrease in cellular concentration of PGE2 ([1]; 3.3 μg/ml): 28% | net decrease in cellular concentration of Inflammatory Metabolites and Inflammatory Metabolite Markers (aggregate) ([1]; 33 μg/ml (third of range 0.33 to 33 μg/ml)): 46% | decrease in cellular concentration of 5-HETE ([1]; 33 μg/ml): 27% | decrease in cellular concentration of LTB4 ([1]; 33 μg/ml): 17% | decrease in cellular concentration of PGE2 ([1]; 33 μg/ml): 19% | change in cellular concentration of Pro-Resolving Lipid Mediators (aggregate) ([2]; 0.33 μg/ml, vs control cells): small increase | change in cellular concentration of all Pro-Resolving Lipid Mediator Markers in the aggregate ([2]; 3.3 μg/ml, vs control cells): decreased | change in cellular concentration of Pro-Resolving Lipid Mediator Marker 15-HETE ([2]; 33 μg/ml, vs control cells): decrease | change in cellular concentration of all Pro-Resolving Lipid Mediator Markers in the aggregate ([2]; 33 μg/ml, vs control cells): decreased
